Data as given in patent US4272541A, “7,8 and 7-8 Substituted 4,5α-epoxymorphinan-6-one compounds, and methods of treating pain and drug dependence with them” (Miles Laboratories, Inc., priority 1979, dated 1981).

Tests used:
Peristalsis = assay: Charcoal meal test, agonist test (ability of test compound to directly inhibit peristalsis); type: in vivo, mice (albino females, CFW strain); conditions: for inhibition at 0.01 mg/kg / inhibition at 0.1 mg/kg / inhibition at 1 mg/kg / inhibition at 10 mg/kg / inhibition at 100 mg/kg: Mus musculus, sc, morphine 8 mg/kg = 100%, read-out: Percent Inhibition of Peristalsis; for inhibition at 0.01 mg/kg: 0.01 mg/kg s.c.; for inhibition at 0.1 mg/kg: 0.1 mg/kg s.c.; for inhibition at 1 mg/kg: 1.0 mg/kg s.c.; for inhibition at 10 mg/kg: 10.0 mg/kg s.c.; for inhibition at 100 mg/kg: 100.0 mg/kg s.c.; for inhibition of peristalsis / constipating side effect: in words, analysis of variance, comparison of compounds
Method: (§1) The agonist and antagonist effects of TR-5088, reference compound TR-5128 and prior art compound 17-cyclopropylmethyl-4,5α-epoxy-3-hydroxymorphinan-6-one (TR-5118) were determined in mice by a modified procedure of Rodriguez and Villarreal (report on the 36th Annual Scientific Meeting Committee on the Problems of Drug Dependance, Mar. 10-14, 1974, Mexico City, D.F.).
(§2) Subjects and Procedure for Measuring Gastrointestinal Peristaltic Activity. The mice used were albino females of the CFW strain, weighing between 20 and 25 grams; ten animals per dose were used for each compound tested in each experiment except 20 animals were used in the tests of Compound 5088. Gastrointestinal peristaltic activity was measured using a modification of the charcoal meal method described by Macht and Baba-Gose (1931). Mice were deprived of food 18 hours before the administration of the charcoal meal. […] This meal consisted of an aqueous suspension of 5% powdered tragacanth and 5% animal charcoal and was freshly made for each experiment. The charcoal meal was administered by gastric intubation, 0.25 ml per mouse. The animals were sacrificed by cervical dislocation. After the sacrifice, the whole gastrointestinal tract was rapidly removed and freed of epiploon. Then the entire length of intestine was hung upon a small hook at the level of the pylorus. In order to standardize the tension of the intestine, a 5 g weight was hung at the level of the ileocecal valve. Gastrointestinal peristaltic activity was then determined by measuring the distance the charcoal traveled from the pylorus.
(§3) Drugs. Morphine hydrochloride, naloxone hydrochloride or test compounds were each dissolved in distilled water with their concentrations adjusted so that the volume of injection was 10 ml/kg. Doses are expressed in terms of the salts.
Morphine (8 mg/kg), test compound, or saline control was administered subcutaneously (s.c.), at time 0, the charcoal meal was administered by mouth (p.o.) at time 15 min, water (10 ml/kg) was administered s.c. at time 30 min, and the animals were sacrificed at time 45 min. The saline control value represents 0% inhibition and the morphine value represents 100% inhibition. All test compounds had values between saline and morphine, and results are expressed as % inhibition compared to morphine.
The data were subjected to analysis of variance. Also the Scheffe test, a statistical test that allows for multiple comparison, was performed.

[1] = tested on: Anti-Peristaltic Effects Of Morphine; assay: Charcoal meal test, antagonist test (ability to antagonize the anti-peristaltic effects of morphine); type: in vivo, mice (albino females, CFW strain); conditions: for Percent Reversal (S.E.) Of Anti-Peristaltic Effects Of Morphine: morphine 8 mg/kg, naloxone 10 mg/kg = 100%; for antagonist properties: in words, charcoal meal tests
Method: as §1, §2, §3
Determination of Ability of Test Compounds to Antagonize the Anti-Peristaltic Effects of Morphine (Antagonist test).
Morphine (8 mg/kg) was given s.c. at time 0, charcoal meal was given p.o. at time 15 min, naloxone or test compound was given s.c. at 30 min, and the animals were sacrificed at time 45 min. Naloxone is the standard of reference and its maximum effect (at 10 mg/kg) to antagonize the antiperistaltic effects of morphine is assigned the value of 100%; test compounds are expressed as % of maximum naloxone antagonism.

[2] = Gates and Montzka 1964; cited from earlier work
morphine effect = assay: Narcotic antagonist activity, modified rat tail flick test; type: in vivo, rats (male albino Wistar); conditions: Rattus norvegicus, ip; rats, test drug i.p. 10 minutes before ED80 dose of morphine s.c.; Table I; read-out: AD50 (the source's name)
Method: (B) Narcotic antagonist activity in rats (modified rat tail flick test).
TEST B. EVALUATION OF NARCOTIC ANTAGONIST ACTIVITY
The narcotic antagonist effects of test compounds were determined by a modification of the rat tail flick procedure of Harris and Pierson (J. Pharmacol. Exp. Ther. 143,141 [1964]).
Male albino Wistar rats (100-120 g) were used for this study. A rat's tail is so placed so as to cover a photocell. Heat is applied by a lamp in a reflector with a timer being connected to the lamp and photocell so that the timer goes on when the light is turned on and is turned off when the photocell is uncovered. A rheostat, incorporated into a heating lamp is used to adjust the intensity of the light falling on the tail of the rat such that the rat's control reaction time is from two to four seconds. Animals with a control reaction time outside this range are rejected. The rheostat adjustment is made only if a significant proportion (more than 2 out of every 10 rats) of the reaction times are outside the range of two to four seconds. Groups of five rats were used each time, and two control times were determined at 60 and 30 minutes prior to subcutaneous injection of the drug.
Thirty minutes after the last control run the test drug was given intraperitoneally. This was followed ten minutes later by an ED80 dose of morphine subcutaneously. The animals were retested at 20 minutes after the morphine injection. Control animals were given vehicle and morphine only. The data were calculated as follows: [formula]
The data were plotted on log-probit paper and AD50 values, i.e., the dose required to inhibit the morphine effect by 50% within 95% confidence limits, were determined by the method of Litchfield and Wilcoxon.

writhing = assay: Acetic acid mouse writhing test (analgesic effects); type: in vivo, mice (male CD-1); conditions: for ED50: Mus musculus, sc, 0.25 h, mice, subcutaneous, acetic acid i.p. 15 minutes post drug, Table I, read-out: ED50
Method: (A) Analgesic effects upon mice (acetic acid writhing test).
TEST A. ACETIC ACID MOUSE WRITHING TEST
The analgesic effects of test compounds were determined in mice by use of the acetic acid writhing test described by B. J. R. Whittle, Brit. J. Pharmacol., 22:246 (1964). In this test at least three groups of five male CD-1 mice (18-22 g) each were given subcutaneous doses of the test drug dissolved in either distilled water or distilled water acidified with HCl depending on the solubility of the compound. In all cases, 0.4 milliliter of a 0.5% V/V acetic acid in distilled water solution was administered intraperitoneally 15 minutes post drug. The number of writhes in a 20 min. interval beginning 5 minutes after the acetic acid injection were determined and compared with the number of writhes in control groups which had received only acetic acid.
Percent inhibition of writhing was calculated as: [formula]
The ED50 dose, i.e., the dose required to reduce the number of writhes by 50%, was determined graphically from a plot of % inhibition as a probit versus log dose. Confidence limits of 95% were calculated on the basis of those results falling in the range 16-84% inhibition. See Litchfield, J. T. and Wilcoxon, F., J. Pharmacol. Exp. Ther., 96, 99-113, (1949).

[3] = Telford et al. 1961; Yeh et al. 1976; cited from earlier work

Row | Compound | inhibition at 0.01 mg/kg (Peristalsis) [%] | inhibition at 0.1 mg/kg (Peristalsis) [%] | inhibition at 1 mg/kg (Peristalsis) [%] | inhibition at 10 mg/kg (Peristalsis) [%] | inhibition at 100 mg/kg (Peristalsis) [%] | Percent Reversal (S.E.) Of Anti-Peristaltic Effects Of Morphine ([1]; 3.1 mg/kg s.c.) | Percent Reversal (S.E.) Of Anti-Peristaltic Effects Of Morphine ([1]; 31.0 mg/kg s.c.) | antagonist properties [1] | ED50 (morphine effect) [mg/kg] | ED50 (writhing) [mg/kg] | Percent Reversal (S.E.) Of Anti-Peristaltic Effects Of Morphine ([1]; 0.01 mg/kg s.c.) | Percent Reversal (S.E.) Of Anti-Peristaltic Effects Of Morphine ([1]; 0.10 mg/kg s.c.) | Percent Reversal (S.E.) Of Anti-Peristaltic Effects Of Morphine ([1]; 1.0 mg/kg s.c.) | Percent Reversal (S.E.) Of Anti-Peristaltic Effects Of Morphine ([1]; 10.0 mg/kg s.c.) | also measured
1 | O=C1CC[C@H]2[C@H]3Cc4ccc(O)c5c4[C@@]2(CCN3CC2CC2)[C@H]1O5 [TR-5118, 17-cyclopropylmethyl-4,5α-epoxy-3-hydroxymorphinan-6-one] | 24.7 | 25.4 | 40.8 | 44.8 | 47.1 | 56.6(±8.0) % | 69.3(±6.4) % | mixed agonist side effects and antagonist properties | 0.19 | 1.34 |  |  |  |  | inhibition of peristalsis / constipating side effect (Peristalsis): inhibit peristalsis to a statistically significantly less degree than TR-5128; narcotic antagonist activity [2]: had narcotic antagonist activity
2 | C=CCN1CC[C@]23c4c5ccc(OC)c4O[C@H]2C(=O)CC[C@H]3[C@H]1C5 [7,8-dihydro-N-allylnorcodeinone, 17-allyl-4,5α-epoxy-3-methoxymorphinan-6-one] |  |  |  |  |  |  |  |  |  |  |  |  |  |  | analgesic properties [3]: weak analgesic properties
3 | C[C@H]1CC(=O)[C@@H]2Oc3c(O)ccc4c3[C@@]23CCN(CC2CCC2)[C@H](C4)[C@H]13.Cl [TR-5088, 17-Cyclobutylmethyl-4,5α-epoxy-3-hydroxy-8β-methylmorphinan-6-one Hydrochloride] | 13.5 | 39.8 | 50.7 | 54 | 63.5 | 54.6(±6.7) % | 44.7(±6.2) % | dramatically increased antagonist properties | 1.9 | 0.67 |  |  |  |  | inhibition of peristalsis / constipating side effect (Peristalsis; Hydrochloride): inhibit peristalsis to a statistically significantly less degree than TR-5128; inhibition of peristalsis / constipating side effect (Peristalsis; listed as 17-cyclobutylmethyl-4,5α-epoxy-3-hydroxy-8β-methylmorphinan-6-one, Hydrochloride): less side effects; Percent Reversal (S.E.) Of Anti-Peristaltic Effects Of Morphine ([1]; 0.031 mg/kg s.c.): 12.4(±5.8) %; Percent Reversal (S.E.) Of Anti-Peristaltic Effects Of Morphine ([1]; 0.31 mg/kg s.c.): 27.7(±7.3) %; analgesic activity (writhing; in words): especially effective analgesics
4 | O=C1CC[C@H]2[C@H]3Cc4ccc(O)c5c4[C@@]2(CCN3CC2CCC2)[C@H]1O5 [TR-5128, 17-Cyclobutylmethyl-4,5α-epoxy-3-hydroxymorphinan-6-one] | 17.5 | 35.6 | 50.7 | 76.3 | 84.2 |  | 20.4(±5.3) % | so low an antagonist ability as to be ineffective in the practical sense | 1.7 | 0.07 | 0.0% | 8.3(±4.6) % | 13.5(±7.3) % | 19.1(±5.8) % | 
5 | C=CCN1CC[C@]23c4c5ccc(O)c4O[C@H]2C(=O)CC[C@@]3(O)[C@H]1C5 [Naloxone] |  |  |  |  |  |  |  |  |  |  | 14.5(±3.0) % | 39.1(±4.2) % | 69.8(±8.0) % | 100.0(±5.9) % | 
